Entries after “also recorded” stand apart in the source; their conditions may differ.
Columns and labels:
Type in all cases: cell-based, human
[1] = system: TMG-expressed A2058 cells; assay: Carbohydrate specificity for TM-mediated cell adhesion, TMG cells; details: 37° C. overnight, light microscopy
Method: A variety of simple carbohydrate (D-mannose, D-galactose, D-lactose, D-glucose, D-xylose), heparin, LMW heparin, chondroitin sulfate A, chondroitin sulfate B, and chondroitin sulfate C were tested to determine their ability to block cell-cell adhesion of the TMG cells. In these experiments, the carbohydrate to be tested was added to the cell monolayer to compare its ability to compete with the TMG. The plates were then incubated at 37° C. for overnight and examined by light microscopy (Leica Model DM IL).
FIG. 8. Effect of different carbohydrates on the cell adhesion of TMG cells. TMG-expressed A2058 cells were challenged with 20 mg/ml of monosaccharides (including D-glucose, D-galactose, D-lactose, D-xylose, D-mannose), 20 mg/ml of chondroitin sulfate A, B, C, or 15 mg/ml of heparin, LMW heparin. Following incubation at 37° C. overnight, images were obtained. Each image is representative of the observations from three separate experiments.

[2] = system: HaCaT cells; assay: Calcium-switch method, HaCaT cells; details: 4 mM EGTA, 40 min
Method: (§1) Cells were grown overnight on glass coverslips at a constant density (5×10^4 cells/well) in 24 well culture plates. The cells were serum-starved for 8 h and Ca^2+ was removed by incubation with DMEM medium containing 4 mM ethyleneglycol-bis-(Amino-Ethyl-Ether) N,N,N′,N′-tetraacetic acid (EGTA) and 1 mM MgCl2 at 37° C. After 1 h, the DMEM medium containing 1.8 mM Ca^2+ was added to replace the Ca^2+-free medium. In control experiments, cells received fresh media in the absence of EGTA. In selected experiments, 10 μg/ml of anti-TM lectin-like antibody, 10 μg/ml of isotype-specific control antibody or anti-E-cadherin antibody (20 μg/ml) was added to the Ca^2+-containing medium.
(§2) FIG. 6. TM participates in Ca^2+-dependent cell-cell adhesion. A2058TMG (A–E) and HaCaT cells (F–J) were left untreated (A, F) or treated with 4 mM EGTA for 40 min (B–E, G–J). The EGTA containing medium was then replaced with Ca^2+-containing medium in the presence of 10 μg/ml control IgG (C, H) for 1 h. After treatment with EGTA, cells were incubated for 1 h in medium containing 1.8 mM Ca^2+ and 10 ? g/ml function-blocking anti-lectin-like antibody (D, I), or anti-E-cadherin antibody (E, J). Green fluorescence shown in panels A to E is the GFP-tagged TM proteins, whereas panels F to J indicate the TM distribution by anti-EGF-like domain antibody detected with tetramethylrhodamine-conjugated anti-mouse antibody. […]

[3] = system: A2058TMG cells; assay: Calcium-switch method, A2058TMG cells; details: 4 mM EGTA, 40 min
Method: as §1, §2

In the case of heparin, the “ability to disperse the close clustering morphology of TMG culture cells” value ([1]; 15 mg/ml) is reported as “minor inhibitory effect on the cell adhesion”.
`O=C[C@H](O)[C@@H](O)[C@H](O)CO` [D-xylose] was tested, and the “ability to disperse the close clustering morphology of TMG culture cells” value ([1]; 20 mg/ml) was “only mannose was found to be effective”.
For “chondroitin 6-sulfate [chondroitin sulfate C]”, the “ability to disperse the close clustering morphology of TMG culture cells” value ([1]; 20 mg/ml) was “could induce cell dispersion”.
With `O=C[C@H](O)[C@@H](O)[C@H](O)[C@H](O)CO` [D-glucose] the “ability to disperse the close clustering morphology of TMG culture cells” value ([1]; 20 mg/ml) was “only mannose was found to be effective”.
In the case of “chondroitin 4-sulfate [chondroitin sulfate A]”, the “ability to disperse the close clustering morphology of TMG culture cells” value ([1]; 20 mg/ml) is reported as “could induce cell dispersion”.
In the case of “dermatan sulfate [chondroitin sulfate B]”, the “ability to disperse the close clustering morphology of TMG culture cells” value ([1]; 20 mg/ml) is reported as “no effect”.
In the case of `O=C(O)CN(CCOCCOCCN(CC(=O)O)CC(=O)O)CC(=O)O` [EGTA, ethyleneglycol-bis-(Amino-Ethyl-Ether) N,N,N′,N′-tetraacetic acid], the “cell-to-cell contacts in EGTA-containing medium” value [2] is reported as “disrupted” and the “cell-to-cell contacts in EGTA-containing medium” value [3] is reported as “disrupted”.
For `O=C[C@H](O)[C@@H](O)[C@@H](O)[C@H](O)CO` [D-galactose], the “ability to disperse the close clustering morphology of TMG culture cells” value ([1]; 20 mg/ml) was “only mannose was found to be effective”.
With `O=C[C@@H](O)[C@@H](O)[C@H](O)[C@H](O)CO` [D-mannose] the “ability to disperse the close clustering morphology of TMG culture cells” value ([1]; 20 mg/ml) was “effective in inducing of cell dispersion; also recorded: highest dispersing effect”.
In the case of `OC[C@H]1O[C@@H](O[C@H]2[C@H](O)[C@@H](O)C(O)O[C@@H]2CO)[C@H](O)[C@@H](O)[C@H]1O` (stereo partly drawn) [D-lactose], the “ability to disperse the close clustering morphology of TMG culture cells” value ([1]; 20 mg/ml) is reported as “only mannose was found to be effective”.

From patent US7087721B2, “Compositions, kits and treating methods for alteration cell-cell adhesion, transport, or permeation properties of tissues” (priority 2003, dated 2006)
